From US8680282B2, “Cyclic inhibitors of carnitine palmitoyltransferase and treating cancer” (University Health Network, priority 2007, dated 2014) come the findings set out here.

One assay concerns H358. The experiment in a line: Cancer cell growth inhibition, SRB assay. As to conditions: H358; at 10 μM; SRB at Day 6; NE = no activity at 10 micromolar. More on the design: Percentage of Growth Inhibition: unit not given here. The assay is classed as cell-based, human. How it is done: (§1) Human cancer cells (MCF-7, H358, H460, HCT116 p53^+/+, HCT116 p53^−/−, A172, PC-3, DU-145 and SW626) were maintained in DMEM medium containing 10% Fetal Bovine Serum (FBS) (Invitrogen, Burlington, ON, Canada) and normal cells HMEC, 184A1, NHBE and PrEC were cultured in MEGM, MEGM plus transferring and cholera toxin, BEGM and PrEGM supplemented with various growth factors (Cambrex, Charles city, Iowa, USA), respectively.
(§2) Compounds of Examples S1 to S30, and 4-(carboxymethyl)-4-(6-(3-hexyloxy)phenoxy)hexanoamido)-1,1-dimethylpiperidinium 2,2,2-trifluoroactate (“Compound A”) were tested in this example. Each of the tested compounds was dissolved in DMSO and further diluted in cell culture medium for the experiments performed. Cells were seeded into 96-well plates with 1,500-5,000 cells/well according to cell growth rate. After 24 h, DMEM medium containing 10% FBS were changed to DMEM containing 3% FBS for cancer cells. The compound was added into the cell culture at the indicated concentrations, and the final concentration of DMSO was adjusted to a final concentration of 0.1%. Cell viability was assessed by Sulforhodamine B (SRB) assay at Day 6.
(§3) Sulforhodamine B (SRB) (Sigma, Oakville, ON, Canada) is a water-soluble dye that binds to the basic amino acids of the cellular proteins. Thus, colorimetric measurement of the bound dye provides an estimate of the total protein mass that is related to the cell number. The cells were fixed in situ by gently aspirating off the culture media and adding 50 ul of cold 10% Tri-chloroacetic Acid (TCA) per well and incubated at 4° C. for 30-60 min. The plates were washed five times with water and allowed to air dry for 5 min. 50 ul of 0.4% (w/v) SRB dissolved in 1% (v/v) acetic acid were added into each well, plates were then incubated at RT for 30 min for staining, washed four times with 1% acetic acid to remove any unbound dye and then allowed to air dry for 5 min. Stain was solubilized with 100 ul of 10 mM Tris pH 10.5 per well. Absorbance was read at 570 nm on a spectrophotometer. GI50 (compound concentration required for 50% of growth inhibition) was calculated using GraphPad Prism 4.0 software (GraphPad Software, Inc., San Diego, Calif., USA). Growth inhibition (%) was determined as percentage of cells remaining compared to the DMSO-treated cells as control.
(The SRB assay estimates cell density from bound dye.)

In another assay the test system is PC-3. The experiment in a line: Cancer cell growth inhibition, SRB assay. In kind it is cell-based, human. As to conditions: PC-3; at 10 μM; SRB at Day 6; NE = no activity at 10 micromolar. Here is the method:
as §1, §2, §3

The subject of the next assay is A172. The experiment in a line: Cancer cell growth inhibition, SRB assay. The assay is classed as cell-based, human. As to conditions: A172; at 10 μM; SRB at Day 6; NE = no activity at 10 micromolar. Here is the method: as §1, §2, §3
For another assay, the system named is COLO-205. The experiment in a line: Cancer cell growth inhibition, SRB assay. In kind it is cell-based, human. The following applies: COLO-205; at 10 μM; SRB at Day 6; NE = no activity at 10 micromolar.
Another assay has as its system SW620. Put plainly: Cancer cell growth inhibition, SRB assay. More on the design: Percentage of Growth Inhibition: scale not given here. The assay is classed as cell-based, human. As to conditions: SW620; at 10 μM; SRB at Day 6; NE = no activity at 10 micromolar.
The subject of a further assay is HCT-15. The experiment in a line: Cancer cell growth inhibition, SRB assay. The assay is classed as cell-based, human. Also on record: Percentage of Growth Inhibition: scale not given here. The following applies: HCT-15; at 10 μM; SRB at Day 6; NE = no activity at 10 micromolar.
The subject of the next assay is SW480. Put plainly: Cancer cell growth inhibition, SRB assay. The assay is classed as cell-based, human. As to conditions: SW480; at 10 μM; SRB at Day 6; NE = no activity at 10 micromolar.
A further assay deals with SW626. Put plainly: Cancer cell growth inhibition, SRB assay. In kind it is cell-based, human. More on the design: Percentage of Growth Inhibition: scale not given here. As to conditions: SW626; at 10 μM; SRB at Day 6; NE = no activity at 10 micromolar. Here is the method:
as §1, §2, §3

Another assay concerns MCF-7. Put plainly: Cancer cell growth inhibition, SRB assay. More on the design: Percentage of Growth Inhibition: scale not given here. The following applies: MCF-7; at 10 μM; SRB at Day 6; NE = no activity at 10 micromolar. In kind it is cell-based, human. How it is done:
as §1, §2, §3

A further assay addresses T1, human CPT1A (Homo sapiens, UniProt P50416).
T1 construct: made in house; host or cells: Saccharomyces cerevisiae (pESC-trp) or cultured mammalian cells (pCDNA3.1); mitochondrial extract
T1 sequence (P50416 1-773): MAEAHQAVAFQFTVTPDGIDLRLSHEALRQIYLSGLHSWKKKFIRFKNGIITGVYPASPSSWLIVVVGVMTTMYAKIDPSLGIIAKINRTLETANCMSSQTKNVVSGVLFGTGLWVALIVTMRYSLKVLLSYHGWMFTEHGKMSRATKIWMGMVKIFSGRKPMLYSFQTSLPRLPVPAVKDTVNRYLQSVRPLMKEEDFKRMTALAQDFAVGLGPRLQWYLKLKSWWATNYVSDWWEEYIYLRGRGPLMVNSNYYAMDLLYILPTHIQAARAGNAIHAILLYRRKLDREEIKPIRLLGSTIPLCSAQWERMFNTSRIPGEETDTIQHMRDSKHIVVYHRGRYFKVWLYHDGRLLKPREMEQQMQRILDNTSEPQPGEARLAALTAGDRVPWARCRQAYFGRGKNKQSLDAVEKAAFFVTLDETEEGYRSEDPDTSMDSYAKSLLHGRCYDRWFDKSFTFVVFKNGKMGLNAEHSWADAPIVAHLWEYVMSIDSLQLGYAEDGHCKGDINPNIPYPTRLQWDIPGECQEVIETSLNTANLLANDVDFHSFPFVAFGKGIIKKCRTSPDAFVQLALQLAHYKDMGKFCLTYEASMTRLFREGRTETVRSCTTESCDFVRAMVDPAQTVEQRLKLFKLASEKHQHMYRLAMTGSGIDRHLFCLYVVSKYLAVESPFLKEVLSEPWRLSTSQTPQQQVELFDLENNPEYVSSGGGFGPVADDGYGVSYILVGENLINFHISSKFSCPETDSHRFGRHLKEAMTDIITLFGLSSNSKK
Put plainly: Human CPT1A LC/MS assay. The assay is classed as biochemical. The source says:
Nucleotide sequences encoding human CPT1 enzymes were individually cloned into the yeast expression vector pESC-trp at the Cla1 (5′ terminus) and Pac1 (3′ terminus) restriction sites by PCR amplification of the open reading frame using oligonucleotide primers designed to encode the wild-type CPT1 protein sequence. Standard molecular biology techniques were used to transform and express the CPT1 proteins in the yeast Saccharomyces cerevisiae. The yeast cells were lysed by enzymatic degradation of the cell wall by Zymolase, and the mitochondria were isolated by standard biochemical techniques. The integrity of the isolated mitochondria was monitored by determining the activity of succinate dehydrogenase in the mitochondrial preparations. The mitochondrial extracts were stored at −80° C. in buffer containing 10 mM HEPES pH 7.4 and 250 mM sucrose.
Human CPT1 (A, B, C) genes were additionally cloned into the pCDNA3.1 vector individually for expression in cultured mammalian cells. Cells expressing the exogenous CPT1A were identified and grown under standard conditions. Mammalian cells were harvested, and mitochondrial extracts prepared using standard biochemical methods. The mitochondrial extracts were stored at −80° C. in buffer containing 10 mM HEPES pH 7.4 and 250 mM sucrose.
Assays were performed in 96-well plate format. Each 100 μL reaction contained 40 mM KCl, 50 mM TrisHCl pH 7.5, and 250 mM mannitol (Assay Buffer), and 1.6 μg protein of an extract, 20 μM palmitoyl-CoA, 50 μM L-carnitine, and 10 ug/mL BSA. Reactions were incubated at room temperature and stopped after 10 minutes by extraction with 200 μL of water saturated n-butanol containing myristoyl carnitine (500 nM) as an internal standard. The samples were thoroughly mixed, and the phases separated by centrifugation. Samples were prepared for analysis with a 10 fold dilution of the n-butanol phase containing the reaction product palmitoyl carnitine into a 50:50 (acetonitrile:water) solvent for analysis. 5 μL of prepared sample was separated on a Phenomenex Jupiter 5μ C4 reverse-phase column using an Agilent 1100 HPLC with a gradient from 50% acetonitrile (0.5% acetic acid) to 100% acetonitrile and quantified by detection with a Bruker Esquire 3000plus mass spectrometer. The abundance of the palmitoyl carnitine product was determined relative to the internal standard and the actual quantity of palmitoyl carnitine can be determined from a standard curve prepared using the n-butanol solution containing the internal standard.
Compounds were evaluated in two formats, a screening format, and a dose response format. The screening format was performed by adding 25 μL compound in 20% DMSO and Assay Buffer to 25 μL of extract containing […] and Assay Buffer, followed by a 10 minute incubation at room temperature. 50 μL of 40 μM palmitoyl-CoA in Assay Buffer was added to the reaction mixture, mixed and incubated for 10 minutes at room temperature. A negative control for activity was also performed where the carnitine was omitted from the reaction. A positive control for activity was also performed by omitting compound from the solution containing 20% DMSO and Assay Buffer. The reaction mixture was extracted and analyzed as described above. The inhibition by compound was determined by comparing the control relative activity to the relative activity observed in wells containing the compound. Relative activity was determined by subtracting the relative intensity (area palmitoyl carnitine/area myristoyl carnitine) observed in the negative control from the relative intensity observed in the experimental well, and dividing by the relative activity observed in the positive control.
[formula] Compound characterization by dose response format was performed using the above described assay conditions and a 16 point compound titration in 2 fold compound dilution steps. The DMSO concentration was kept constant at 20% (v/v) for all compound concentrations.

[1] abbreviates: human CPT1A LC/MS assay, dose response format.

`CCCCCCCCc1ccc(NC(=O)NC2(CC(=O)O)CCN(C)CC2)cc1` [Example S1, 4-(carboxymethyl)-1-methyl-4-(3-(4-octylphenyl)ureido)piperidinium 2,2,2-trifluoroacetate]: the “Percentage of Growth Inhibition” value in the assay with H358 amounted to 0.4324; with PC-3, 0.1924%; in the assay on A172 it was 0.1571%; with COLO-205 it was 0.07287%; in the assay with SW620, 0.04345%; in the assay on HCT-15 it was 0.05911%. Also, the “Percentage of Growth Inhibition” value with SW480 was determined as 0.08459%; in the assay on SW626, 0.05142%; in the assay on MCF-7, 0.1204%.

`CCCCCc1ccc(S(=O)(=O)NC2(CC(=O)O)CCC[N+](C)(C)C2)cc1` (stereo not shown) [Example S12, 3-(carboxymethyl)-1,1-dimethyl-3-(4-pentylphenylsulfonamido)-piperidinium 2,2,2-trifluoroacetate]: the “Percentage of Growth Inhibition” value is 0.04495 in the assay with H358; 0.07689% with A172; 0.1281% with COLO-205; 0.00486% in the assay with SW626; 0.2351% with MCF-7. At human CPT1A (setting [1]), this compound registered an IC50 of no more than 1 µM.

`CN1CCCC(CC(=O)O)(NC(=O)c2ccc(CCc3ccccc3)o2)C1` (stereo not shown) [Example S13, 3-(carboxymethyl)-1-methyl-3-(5-phenethylfuran-2-carboxamido)-piperidinium 2,2,2-trifluoroacetate] yielded an IC50 against human CPT1A (setting [1]) of 100 to 1000 µM.

Take `C[N+]1(C)CCCC(CC(=O)O)(NC(=O)c2ccc(CCc3ccccc3)o2)C1` (stereo not shown) [Example S14, 3-(carboxymethyl)-1,1-dimethyl-3-(5-phenethylfuran-2-carboxamido)piperidinium 2,2,2-trifluoroacetate]: the “Percentage of Growth Inhibition” value in the assay on H358 is reported as 0.3919; in the assay with SW620 it was 0.04122%. The compound further had an IC50 on human CPT1A (setting [1]) of 10 to 100 µM.

`CCCCCCCCc1ccc(NC(=O)NC2(CC(=O)O)CCN(C)C2)cc1` (stereo not shown) [Example S17, 3-(carboxymethyl)-1-methyl-3-(3-(4-octylphenyl)ureido)pyrrolidinium 2,2,2-trifluoroacetate] had a concentration for half-maximal inhibition (IC50) against human CPT1A (setting [1]) of 10 to 100 µM.

The compound `CCCCCc1ccc(S(=O)(=O)NC2(CC(=O)O)CCN(C)C2)cc1` (stereo not shown) [Example S19, 3-(carboxymethyl)-1-methyl-3-(4-pentylphenylsulfonamido)-pyrrolidinium 2,2,2-trifluoroacetate] gave a half-inhibitory concentration (IC50) against human CPT1A (setting [1]) of 100 to 1000 µM. Besides, the “Percentage of Growth Inhibition” value in the assay with MCF-7 is 0.08166%.

Consider `CCCCCc1ccc(S(=O)(=O)NC2(CC(=O)O)CNC2)cc1` [Example S25, 3-(carboxymethyl)-3-(4-pentylphenylsulfonamido)azetidinium 2,2,2-trifluoroacetate], for which the “Percentage of Growth Inhibition” value was 0.05754 in the assay with H358, 0.00572% with HCT-15, 0.07606% with SW626 and 0.1452% in the assay with MCF-7. Besides, the IC50 on human CPT1A (setting [1]) was greater than 2500 µM.

`C[N+](C)(C)C[C@H](N)CC(=O)[O-]` [L-aminocarnitine, reference compound] registered an IC50 against human CPT1A (dose response assay, n=17) of 7 ± 2.5 µM.

The IC50 is the concentration that inhibits the measured activity by half.
